These results are taken from US20210387983A1, “CRYSTALLINE ALK5 INHIBITORS AND USES THEREOF” (THERAVANCE BIOPHARMA R&D IP, LLC, priority 2020, published 2021).

For assay [1], the system named is TGF-β-stimulated SMAD3 phosphorylation in BEAS-2B cells. Put plainly: Cellular ALK5 potency assay, inhibition of TGF-β stimulated pSMAD3 formation in BEAS-2B cells. It is filed as cell-based. The following applies: Homo sapiens, 1 hour compound incubation, TGF-β 10 ng/mL for 30 minutes, read-out: pIC50 value, inhibition of TGF-β-stimulated pSMAD3 formation (converted). The protocol: The potency of the compound of Formula I for inhibition of TGF-β-stimulated SMAD3 phosphorylation was measured in BEAS-2B cells, a human lung epithelial cell line. TGF-β signals through activin receptor-like kinase 5 (ALK5) immediately prior to SMAD3 phosphorylation.
BEAS-2B cells were grown using 50% DMEM (Life Technologies) and 50% F-12 (Life Technologies) media, supplemented with 10% Fetal Bovine Serum (ATCC), 25 mM HEPES (Life Technologies), and 1× Pen-Strep (Life Technologies). Cells were cultured in a humidified incubator set at 37° C., 5% CO2, and trypsonized using 0.25% Trypsin with 0.5% polyvinylpyrrolidone (PVP).
For the assay, BEAS-2B cells were seeded at 7,500 cells/well (25 μL/well) in a 384-well plate and cultured overnight. Before dosing, growth media was aspirated and the wells were rinsed with HBSS Buffer (HBSS with Calcium and Magnesium, Life Technologies) supplemented with 25 mM HEPES (Life Technologies) and 1% Bovine Serum Albumin (Roche). […] AlphaLISA Acceptor and Detector beads (PerkinElmer) were added 2 hours apart, then incubated overnight to be read the next day. The potency of the compound was determined through analysis of dose-dependent quantified changes in pSMAD3 signal from baseline (non-compound treated TGF-β stimulated cells). Data are expressed as pIC50 (negative decadic logarithm IC50) values.

Assay [2] concerns syngeneic cancer models (4T1 cells, CT26 cells). Put plainly: Efficacy study in syngeneic cancer model (4T1 or CT26 cells). The assay is classed as in vivo, BALB/c mice. The text has this: The compound of Formula I is expected to suppress tumor growth in syngeneic cancer models when administered alone or in combination with an immunotherapeutic agent. Six- to 8-week old BALB/c mice are used for in vivo efficacy studies in accordance with IACUC guidelines. Commercially available 4T1 cells (0.5-2.0×10^4 cells/mouse) are implanted subcutaneously into the right flanks of BALB/c mice. When the tumor reaches a palpable size of approximately 8-10 mm in diameter, the primary tumors are surgically removed, and the mice are randomly assigned to vehicle control or compound treatment groups. Alternatively, CT26 cells (0.5-2.0×10^4 cells/mouse) are injected intravenously into BALB/c mice to generate the cancer model. […]
Body weight is measured twice weekly. Following 2- to 4-weeks of treatment, the lung and liver of each animal is harvested, and the number of metastatic cells in each tissue sample determined using a clonogenic metastasis assay. […]

Assay [3] concerns DSS-induced intestinal fibrosis. As to the kind of experiment: Efficacy study in murine DSS-induced intestinal fibrosis model. The conditions noted are these: oral gavage following the second of the 3 cycles of DSS; sacrifice at 6, 9 or 12 weeks. It is filed as in vivo, C57BL/6J mice. The protocol:
The compound of Formula I is expected to slow, halt or reverse the progression of intestinal fibrosis in a murine colitis model. Six to 8-week old male C57BL/6J mice are tagged and weighed. The drinking water of the animals is treated with 2.5% dextran sulfate sodium (DSS) for 7 days to induce acute colitis, followed by 2 days of normal drinking water. Three, 3-week cycles of 2.5% DSS treatment (1 week of 2.5% DSS in water; 2 weeks of normal water) are then completed to induce intestinal fibrosis. Following the second of the 3 cycles of DSS administration, mice are treated with either vehicle control or the compound of Formula I at an appropriate amount and frequency via oral gavage (e.g., once daily). Animals are sacrificed at either 6, 9 or 12 weeks after the first DSS cycle, then distal, mid and proximal sections of the colon harvested for histologic analysis, RNA extraction and cytokine measurement.

The subject of assay [4] is intestinal fibrosis in an adoptive T-cell transfer model of colitis. As to the kind of experiment: Efficacy study in adoptive T-cell transfer model of colitis. It is filed as in vivo, CB17 SCID mice. The following applies: oral gavage once diarrhea and 10% body weight decrease observed; sacrifice 45 days after induction. The protocol:
The compound of Formula I is expected to slow, halt or reverse the progression of intestinal fibrosis in an adoptive T-cell transfer model of colitis. Six- to 8-week old female CB17 SCID mice are tagged and weighed, then administered CD4^+ CD25^− CD62L^+ naïve T cells isolated from the spleens of Balb/C mice (IP; 1×10^6 cells) to induce colitis. Once diarrhea and a 10% or greater decrease in body weight are observed (typically around week 2), mice are treated with either vehicle control or the compound of Formula I at an appropriate amount and frequency via oral gavage (e.g., once daily). Animals are sacrificed 45 days after induction of colitis, then distal, mid and proximal sections of the colon harvested for histologic analysis, RNA extraction and cytokine measurement.

Assay [5] concerns monocrotaline (MCT) model of severe pulmonary hypertension. Put plainly: Efficacy study in monocrotaline model of severe pulmonary hypertension. It is filed as in vivo, Sprague-Dawley rats. The following applies: MCT 60 mg/kg s.c.; oral aspiration, 2-weeks of treatment. The protocol:
Male Sprague-Dawley rats are tagged, weighed, and randomly divided into control and MCT-treated groups. The rats in the MCT-treated group are administered a single dose of MCT (60 mg/kg, s.c.), then treated with either (1) vehicle control; (2) sildenafil (30 mg/kg, p.o., b.i.d.); or (3) the compound of Formula I at an appropriate amount and frequency (formulated in 3% glycerol in PBS; pH=4) via oral aspiration.
Following 2-weeks of treatment, the animals are anesthetized with ketamine/xylazine for terminal monitoring of pulmonary and systemic arterial pressures along with heart rate. The lungs of each animal are then harvested for histologic analysis.

`C[C@@H]1CN(CCNc2cnc3ccc(-c4nc[nH]c4-c4cc(Cl)ccc4F)nc3c2)C[C@H](C)N1` [compound of Formula I, 6-(5-(5-chloro-2-fluorophenyl)-1H-imidazol-4-yl)-N-(2-((3S,5R)-3,5-dimethylpiperazin-1-yl)ethyl)-1,5-naphthyridin-3-amine]: the IC50 in assay [1] is 25.1 to 158 nM. The “lung tumor burden in combination with an immunotherapeutic agent” value in assay [2] (combination with immunotherapeutic agent (e.g., pembrolizumab or durvalumab), relative to either single agent alone) was “increased reduction in lung tumor burden”. Moreover, in assay [2] (compound alone, oral aspiration or intranasally, 2- to 4-weeks of treatment), the lung tumor burden entry was “reduction in lung tumor burden”. Also, the intestinal fibrosis result in assay [3] is recorded as “slow, halt or reverse intestinal fibrosis”; in assay [4], “slow, halt or reverse intestinal fibrosis”. Also, the “progression of pulmonary hypertension” value in assay [5] was “slow, halt or reverse the progression of pulmonary hypertension”.
